Read-outs that look alike come from different tables or passages of the source. Values belong to the molecule of their own block, whether it stands above or below them.
Tests used:
CD8^+ T lymphocytes = test: Proliferation of anti-CD3 plus IL-2 activated CD8+ T lymphocytes; format: cell-based, BALB/c mouse
From the text: (§1) Growth curves of lymph node T cells depleted of antigen-presenting cells (FIG. 17A) with and without 10^-6 M retinol at 2×10^5 and 5×10^4 cells/well. (FIG. 17B) Dose-responses elicited by different retinoids in cultures of lymph node T cells depleted of antigen-presenting cells. Also shown are the growth curves of CD4^+ (FIG. 17C) and CD8^+ T lymphocytes (FIG. 17D) in the presence of either retinol, 14HRR, human serum or in their absence.
(§2) T lymphocytes, purified as described, 5×10^4 /well, were activated with immobilized anti-CD3 antibody in ITLB medium. The indicated amounts of retinoids or human serum were added at initiation of cultures. […] 14HRR was added every 12 hours. DNA synthesis was measured by a 4 hour pulse with tritiated thymidine. SDs were ≤17%.
(§3) Mature T cells were obtained from pooled intestinal, axillary, inguinal and submandibular lymph nodes of 4 to 10-week-old BALB/c mice. To fractionate cells into CD4 and CD8 subsets and at the same time remove APC, a combination of adherence and complement lysis was used as follows:
(§4) The cell suspension in a volume of 2 ml was applied to a nylon wool column (40) (0.6 g of washed nylon fibers in the barrel of a 10 ml syringe) and incubated at 37° C. for 40 min. […] The success of the enrichment procedures was monitored cytofluorimetrically using FITC-conjugated anti-CD8 and PE-conjugated anti-CD4. […]

[1] = Stability of retinoids in serum-free tissue culture medium; format: in vitro ADME
B lymphocytes = conditions: cited from earlier work
[2] = tested on: immediate early genes in fibroblasts; test: Expression of immediate early genes in fibroblasts; format: cell-based; conditions: work to be published elsewhere
CD4^+ T lymphocytes = test: Proliferation of anti-CD3 activated CD4+ T lymphocytes; format: cell-based, BALB/c mouse
From the text: as §1, §2, §3, §4

ERLD = test: Retinol metabolism, ERLD; format: in vitro ADME
Method: (§5) Legend: 2.5×10^6 cells were grown overnight in 5 ml RPMI/10% FBS. The FBS was preincubated at room temperature with 14.4 uCi [^3 H] retinol (NEN) for 4h. The cell pellet was washed twice with PBS. The retinoid were extracted according to MClean et al. 90 and separated on an analytical c18 reverse phase column according to FIG. 7. The DPM were determined using an on-line scintillation counter.

SK--N--SH = test: Retinol metabolism, SK--N--SH; format: in vitro ADME, human
Method: as §5

Hela = test: Retinol metabolism, Hela; format: in vitro ADME, human
Method: as §5

RPMI = test: Retinol metabolism, RPMI (Leukemia ALL); format: in vitro ADME
Method: as §5

Ket = test: Retinol metabolism, Ket; format: in vitro ADME, human
Method: as §5

N-tera2 = test: Retinol metabolism, N-tera2; format: in vitro ADME, human
Method: as §5

SK3886 = test: Retinol metabolism, SK3886; format: in vitro ADME
Method: as §5

half-life [1]: ~4 h
half-life ([1]; tissue culture medium, data not shown): 4 h
SMILES: CC(C=CC=C(C)C(O)CO)=CC=C1C(C)=CCCC1(C)C (stereo not drawn) [14HRR, 14-hydroxy-4,14-retro-retinol]
response of CD8+ subset to anti-CD3 plus IL-2 (CD8^+ T lymphocytes): responded to the activating signal
difference in active concentration, 14HRR vs retinal (B lymphocytes): 40 fold
support of B cell proliferation / response (B lymphocytes): capable of supporting the proliferation of B cells in the absence of an external supply of retinal
active concentration (B lymphocytes; previous analyses with B lymphocytes (ref. 33)): 50 nM
expression of immediate early genes [2]: facilitates the expression of immediate early genes in fibroblasts
response of CD4+ subset to anti-CD3 (CD4^+ T lymphocytes): responded to the activating signal

Ester (% of taken up retinol) (ERLD): 20%
P3 (% of taken up retinol) (ERLD): 9%
Total cts. (ERLD): 2.8 × 10^5 cts.
Ester (% of taken up retinol) (SK--N--SH): 25%
P3 (% of taken up retinol) (SK--N--SH): 0.9%
Retinol (% of taken up retinol) (SK--N--SH): 56%
Total cts. (SK--N--SH): 2.0 × 10^5 cts.
Ester (% of taken up retinol) (Hela): 20%
P3 (% of taken up retinol) (Hela): 3%
Total cts. (Hela): 1.0 × 10^5 cts.
Ester (% of taken up retinol) (RPMI): 38%
P3 (% of taken up retinol) (RPMI): 2%
Total cts. (RPMI): 1.2 × 10^5 cts.
Ester (% of taken up retinol) (Ket): 41%
P3 (% of taken up retinol) (Ket): 3%
Total cts. (Ket): 4.6 × 10^5 cts.
Ester (% of taken up retinol) (N-tera2): 97%
P3 (% of taken up retinol) (N-tera2): 0.4%
Total cts. (N-tera2): 13.5 × 10^5 cts.
Ester (% of taken up retinol) (SK3886): 2%
P3 (% of taken up retinol) (SK3886): 3%
Total cts. (SK3886): 4.7 × 10^5 cts.
SMILES: CC1=C(/C=C/C(C)=C/C=C/C(C)=C/CO)C(C)(C)CCC1 [retinol, all-trans retinol]

From patent US5814612A, “Retinol derivatives and uses thereof” (priority 1992, dated 1998)
